How the values were obtained:
[1] = test system: poly dAdT-poly dAdT; assay: Thermal denaturation of poly dAdT-poly dAdT (∆Tm); assay type: binding; details: I = 50 mM
Procedure: (§1) Experiments were conducted in an aqueous buffer solution (pH = 7.0 or pH= 5.0, I = 0.05 M, sodium cacodylate buffer). For the UV-Vis spectra were used Varian Cary 100 Bio spectrometer, for fluorescence spectra we used the Varian Cary Eclipse fluorimeter and for CD spectra we used the JASCO J815 spectropolarimeter, all conducted at 25.0 °C using appropriate quartz cuvettes (path length: 1 cm).
(§2) Polynucleotides were purchased as noted: poly dAdT-poly dAdT, poly dGdC-poly dGdC, poly A-poly U (ds-RNA), (Sigma-Aldrich, Schnelldorf, Germany), calf thymus (ct)-DNA (Sigma-Aldrich, Schnelldorf, Germany) and dissolved in sodium cacodylate buffer, I = 0.05 M, pH = 7.0. The ct-DNA was sonicated and filtered through a 0.45 µm filter to obtain mostly short (ca. 100 base pairs) rod-like B-helical DNA fragments. The concentration of DNA or RNA was determined spectroscopically as the c(nucleobase) using producer-provided molar extinction coefficients.
(§3) Thermal denaturation of ds-DNA, ds-RNA and their complexes with studied compounds was performed by monitoring the absorption change at 260 nm as a function of temperature. Tm values are the midpoints of the transition curves determined from the maximum of the first derivative and checked graphically by the tangent method. The ∆Tm values were calculated by subtracting the Tm of the free nucleic acid from the Tm of the complex. Every ∆Tm value here reported was the average of at least two measurements. The error in ∆Tm is ± 0.5 °C.

[2] = test system: pApU (poly A-poly U, ds-RNA); assay: Thermal denaturation of pApU ds-RNA (∆Tm); assay type: binding; details: I = 50 mM
Procedure: as §1, §2, §3

[3] = test system: WI-38 cells; assay: MTT cell viability assay, WI-38, with or without UV light; assay type: cell-based, human; details: WI-38, 10 μM and 1 μM, without UV
Procedure: Cells. Commercially available from American Type Culture Collection (ATCC), human epithelial lung adenocarcinoma A549 (ATCC® CCL-185™) and human normal lung fibroblast WI-38 (ATCC® CCL-75™) were grown according to supplier’s conditions, namely in Dulbecco Modified Eagle’s Medium (DMEM, Sigma Aldrich, St. Louis, MO, USA) supplemented with 10% of fetal bovine serum (FBS, Sigma Aldrich, USA). Cells were incubated in the cell incubator (Thermo Fischer Scientific, Waltham, MA, USA) at 37 °C and 5% CO2 in a humidified atmosphere.
Cell viability assay. In order to obtain a 10 mM stock solution chemical compounds (2M, 1, and 1M) were sterilely diluted in an appropriate volume of dimethyl sulfoxide solution (DMSO, Gram-Mol, Zagreb, Croatia). Solutions were kept in the dark and stored at 4 °C. The cytotoxic effects of each compound were assayed on A549 and WI-38 cells. […] Briefly, cells were seeded in 96-well tissue culture plates and 24 h later treated with 2M, 1, or 1M in the concentration range of 10–0.1 μM. Cells treated with the same dilutions of DMSO represented the control, while cells treated only with DMEM (10% FBS) represented the negative control. […] The resulting MTT-formazan products were dissolved using DMSO, and their absorbance at 600 nm was measured using a microplate reader. […]

[4] = test system: pUC19 plasmid DNA; assay: Plasmid electrophoresis, photoinduced DNA nuclease activity; assay type: biochemical; details: 100 μM compound; for Photo-induced nuclease activity on plasmid DNA: 1 μg pUC19, UV light 15 and 45 s; for Effect on plasmid DNA forms without UV irradiation: 1 μg pUC19, non-irradiated
Procedure: Plasmid electrophoresis. For assessing the photoinduced DNA nuclease activity of compounds 2M, 1 and 1M, 1 μg of pUC19 plasmid DNA (2686 pb) was incubated with a 100 μM solution of the respective compound, and exposed to UV light (using a xenon arc lamp, Oriel, Stratford, CT, USA) for 15 and 45 s. After the treatment plasmid samples were run on 0.5% agarose gel, and stained with Midori Green DNA binding dye (Nippon Genetics, Düren, Germany). Non-irradiated samples containing compounds and plasmid DNA served as a control for assessing the photoinduced nuclease activity of the compound. Plasmid without the compound was irradiated with UV light under the same conditions to determine whether UV light itself induces changes in plasmid DNA forms (linear and supercoiled form). After gel electrophoresis, plasmid DNA forms were visualised on a UVITEC Imager (Cleaver Scientific, Rugby, UK).

[5] = test system: A549 cells; assay: Confocal time-lapse imaging under irradiation; assay type: cell-based, human; details: A549, 1 µM (Figure 9), irradiated at 350 nm
Procedure: Cells were left in the cell incubator for 90 min to allow the compound to enter the cells. After incubation, the medium was replaced with 500 μL of fresh medium. […]

[6] = test system: poly dAdT-poly dAdT (AT-DNA, p(dAdT)2) (DNA, polymer) AT; assay: UV thermal denaturation at 260 nm; details: Na+ (sodium cacodylate, I = 50 mM); pH 7.0; r = [compound]/[polynucleotide] = 0.2; error ± 0.5 °C; per base
[7] = test system: poly dAdT-poly dAdT (AT-DNA, p(dAdT)2) (DNA, polymer) AT; assay: fluorimetric titration, Scatchard; details: Na+ (sodium cacodylate, I = 0.05 M); pH 7.0, 25 °C; Scatchard n fixed at 0.2 or 0.3; per base
[8] = test system: poly dGdC-poly dGdC (GC-DNA, p(dGdC)2) (DNA, polymer) GC; assay: fluorimetric titration, Scatchard; details: Na+ (sodium cacodylate, I = 0.05 M); pH 7.0, 25 °C; Scatchard n fixed at 0.2 or 0.3; per base
[9] = test system: poly A-poly U (AU-RNA, pApU) (RNA, polymer) A/U; assay: UV thermal denaturation at 260 nm; details: Na+ (sodium cacodylate, I = 50 mM); pH 7.0; r = [compound]/[polynucleotide] = 0.2; error ± 0.5 °C; per base
[10] = test system: poly A-poly U (AU-RNA, pApU) (RNA, polymer) A/U; assay: fluorimetric titration, Scatchard; details: Na+ (sodium cacodylate, I = 0.05 M); pH 7.0, 25 °C; Scatchard n fixed at 0.2 or 0.3; per base
[11] = test system: ct-DNA; assay: Thermal denaturation of ct-DNA (∆Tm); assay type: binding, calf; details: I = 50 mM
Procedure: as §1, §2, §3

[12] = r = 0.2, pH 7.0, sodium cacodylate buffer
[13] = r = 0.3, pH 7.0, sodium cacodylate buffer

Structure (SMILES)	∆Tm Poly dAdT-Poly dAdT [1, 12] [°C]	∆Tm Poly dAdT-Poly dAdT [1, 13] [°C]	∆Tm pApU [2, 12] [°C]	∆Tm pApU [2, 13] [°C]	Cytotoxic effect relative to A549 [3]	Photo-induced nuclease activity on plasmid DNA [4]	Effect on plasmid DNA forms without UV irradiation [4]	Cell morphology under continuous irradiation [5]	∆Tm [6] [°C]	logKs [7]	logKs [8]	∆Tm [9] [°C]	logKs [10]	∆Tm ct-DNA [11, 12]	∆Tm ct-DNA [11, 13]	∆Tm ct-DNA ([11]; r = 0.1, pH 5.0, sodium cacodylate buffer) [°C]	∆Tm ct-DNA ([11]; r = 0.3, pH 5.0, sodium cacodylate buffer) [°C]
C[n+]1ccc(-c2cc3ccc4cccc5ccc(c2)c3c45)cc1 [1M, 2-para-N-methylpyridinium pyrene]	8	9	3	3	somewhat more resilient	strong photo-induced nuclease activity	nicking of the plasmid DNA	swelling and even blebbing morphology	8	5.9	7.0	3	5.8	–	–	–	–
C[n+]1ccc(-c2cc3ccc4cc(-c5cc[n+](C)cc5)cc5ccc(c2)c3c45)cc1 [2M]	31	33	4	–	somewhat more resilient	strong photo-induced nuclease activity	unwinding of supercoiled DNA even without UV irradiation	swelling and even blebbing morphology	31	7.1	9.1	4	8.5	^d >16 °C	^d >16 °C	–	–
c1cc2ccc3cc(-c4ccncc4)cc4ccc(c1)c2c34 [compound 1]	–	–	–	–	–	did not show any influence on DNA plasmid forms	–	–	–	–	–	–	–	–	–	0	2

Source: publication PMC9696974 (Pharmaceutics, 2022)
